Assay results taken from ChEMBL document CHEMBL1201862, “PubChem BioAssay data set” (2004).
Calls of active or inactive are those of the source.

Legend:
[1] = biological target: T1, Sentrin-specific protease 8 (Homo sapiens, UniProt Q96LD8); format: functional
T1 sequence (Q96LD8 whole entry): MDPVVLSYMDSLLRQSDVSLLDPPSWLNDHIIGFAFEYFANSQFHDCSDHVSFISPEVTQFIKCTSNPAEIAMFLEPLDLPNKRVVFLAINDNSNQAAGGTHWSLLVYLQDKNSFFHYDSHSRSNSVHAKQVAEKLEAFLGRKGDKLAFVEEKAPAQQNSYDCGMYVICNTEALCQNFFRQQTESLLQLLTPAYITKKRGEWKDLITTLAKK

[2] = biological target: T2, Sentrin-specific protease 6 (Homo sapiens, UniProt Q9GZR1); format: functional;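 further: Luminescence-based dose-response confirmatory assay of SENP6 inhibition, following up an ultra-high-throughput screen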
T2 sequence (Q9GZR1 whole entry): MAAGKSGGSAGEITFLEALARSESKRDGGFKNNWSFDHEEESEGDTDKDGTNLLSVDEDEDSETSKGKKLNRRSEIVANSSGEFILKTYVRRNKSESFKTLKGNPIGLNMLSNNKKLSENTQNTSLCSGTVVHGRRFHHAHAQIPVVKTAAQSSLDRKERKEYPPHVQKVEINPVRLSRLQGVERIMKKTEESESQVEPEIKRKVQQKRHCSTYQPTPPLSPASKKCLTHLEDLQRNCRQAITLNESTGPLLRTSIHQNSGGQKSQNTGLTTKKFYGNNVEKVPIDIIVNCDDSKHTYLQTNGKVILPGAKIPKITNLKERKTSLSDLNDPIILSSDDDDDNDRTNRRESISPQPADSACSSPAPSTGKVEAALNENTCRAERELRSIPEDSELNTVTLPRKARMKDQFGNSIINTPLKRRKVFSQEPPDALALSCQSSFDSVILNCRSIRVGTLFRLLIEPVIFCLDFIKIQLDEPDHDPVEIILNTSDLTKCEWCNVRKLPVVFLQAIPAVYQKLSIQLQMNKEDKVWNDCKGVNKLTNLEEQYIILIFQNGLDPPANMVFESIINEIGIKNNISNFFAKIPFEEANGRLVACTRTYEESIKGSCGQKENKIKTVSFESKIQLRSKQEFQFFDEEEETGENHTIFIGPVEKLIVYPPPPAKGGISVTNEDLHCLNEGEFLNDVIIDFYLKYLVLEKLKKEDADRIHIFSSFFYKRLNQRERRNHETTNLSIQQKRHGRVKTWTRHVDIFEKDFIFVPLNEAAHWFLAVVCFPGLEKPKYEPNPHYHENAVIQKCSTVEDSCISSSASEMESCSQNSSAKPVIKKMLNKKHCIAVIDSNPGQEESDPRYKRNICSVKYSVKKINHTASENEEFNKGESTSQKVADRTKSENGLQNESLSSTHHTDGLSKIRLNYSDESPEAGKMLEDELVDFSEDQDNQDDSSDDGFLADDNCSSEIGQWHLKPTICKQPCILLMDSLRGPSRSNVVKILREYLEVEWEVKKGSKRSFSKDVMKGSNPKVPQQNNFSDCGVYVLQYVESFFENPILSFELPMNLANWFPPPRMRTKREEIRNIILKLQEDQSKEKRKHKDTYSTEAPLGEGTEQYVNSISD

[3] = biological target: T1, Sentrin-specific protease 8; format: functional; remark: listed apart in the source
[4] = biological target: T3, Sentrin-specific protease 7 (Homo sapiens, UniProt Q9BQF6); format: functional;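 further: Luminescence-based dose-response confirmation of ultra-high-throughput screening hits, measuring inhibition of SENP7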
T3 sequence (Q9BQF6 whole entry): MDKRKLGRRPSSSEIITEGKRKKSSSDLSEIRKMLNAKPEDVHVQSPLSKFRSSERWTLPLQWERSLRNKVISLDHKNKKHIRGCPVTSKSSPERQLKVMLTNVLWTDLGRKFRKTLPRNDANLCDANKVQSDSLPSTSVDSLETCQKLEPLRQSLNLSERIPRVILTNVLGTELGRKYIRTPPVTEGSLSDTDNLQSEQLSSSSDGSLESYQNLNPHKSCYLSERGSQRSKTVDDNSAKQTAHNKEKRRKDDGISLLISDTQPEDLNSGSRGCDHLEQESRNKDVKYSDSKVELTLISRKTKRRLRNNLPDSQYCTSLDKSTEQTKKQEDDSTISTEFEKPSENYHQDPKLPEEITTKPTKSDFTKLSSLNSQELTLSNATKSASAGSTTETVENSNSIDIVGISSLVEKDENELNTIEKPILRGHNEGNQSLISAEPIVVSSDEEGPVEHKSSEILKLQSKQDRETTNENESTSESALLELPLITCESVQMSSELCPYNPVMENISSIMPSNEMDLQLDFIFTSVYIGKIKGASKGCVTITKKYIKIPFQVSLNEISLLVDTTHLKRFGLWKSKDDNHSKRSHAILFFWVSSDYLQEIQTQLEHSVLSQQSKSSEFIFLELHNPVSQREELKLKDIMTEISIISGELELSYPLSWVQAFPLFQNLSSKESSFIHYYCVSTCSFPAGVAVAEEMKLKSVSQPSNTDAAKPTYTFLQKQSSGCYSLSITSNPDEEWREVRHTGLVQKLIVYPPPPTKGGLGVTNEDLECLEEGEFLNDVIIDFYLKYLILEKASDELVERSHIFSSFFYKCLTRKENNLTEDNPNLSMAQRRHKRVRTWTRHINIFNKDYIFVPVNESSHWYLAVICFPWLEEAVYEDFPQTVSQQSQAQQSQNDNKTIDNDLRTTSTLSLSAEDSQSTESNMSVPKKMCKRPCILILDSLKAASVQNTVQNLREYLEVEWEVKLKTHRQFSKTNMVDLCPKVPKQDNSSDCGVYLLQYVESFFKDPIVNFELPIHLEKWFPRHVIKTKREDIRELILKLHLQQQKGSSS

[5] = biological target: T4, Mitochondrial peptide methionine sulfoxide reductase (Bos taurus, UniProt P54149); assay: Absorbance-based biochemical high throughput dose response assay for activators of Methionine sulfoxide reductase A (MsrA).; format: functional
Caspase-3 = biological target: T5, Caspase-3 (Homo sapiens, UniProt P42574); format: functional;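 further: Dose-response selectivity test against caspase-3 for candidate inhibitors of sentrin-specific proteases (SENPs)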
T5 sequence (P42574 whole entry): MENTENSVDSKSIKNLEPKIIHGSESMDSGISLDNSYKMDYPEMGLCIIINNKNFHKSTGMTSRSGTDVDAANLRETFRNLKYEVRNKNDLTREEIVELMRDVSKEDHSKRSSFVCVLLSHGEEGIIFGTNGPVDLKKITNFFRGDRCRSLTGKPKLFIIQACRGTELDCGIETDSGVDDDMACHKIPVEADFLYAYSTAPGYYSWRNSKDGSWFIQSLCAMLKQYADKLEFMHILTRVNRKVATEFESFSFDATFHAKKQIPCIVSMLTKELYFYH

[6] = biological target: Dual specificity tyrosine-phosphorylation-regulated kinase 1A (Rattus norvegicus, UniProt Q63470); format: biochemical, Homo sapiens
[7] = off-target signal loss in HeLa-CEM21 co-culture – HeLa F-luc CTL cells, cherry-picked, counter-screen for HIV-1 Env fusion inhibitor project, dose response (AID 652040); format: functional, cell-based;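 further: potency for signal decrease marking cytotoxic or nonspecific inhibition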
[8] = biological target: T6, Heat shock factor protein 1 (Mus musculus, UniProt P38532); assay: inhibition of MG132-induced HSE-luciferase signal, confirmation, cell-based, NIH3T3, luminescence, dose retest (AID 2382); format: functional;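 further: NIH3T3 fibroblasts with HSF1-driven luciferase reporter stressed by proteasome inhibitor MG132; luminescence from HSF1-driven luciferase expression after 8 hours of MG132 stress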
T6 sequence (P38532 whole entry): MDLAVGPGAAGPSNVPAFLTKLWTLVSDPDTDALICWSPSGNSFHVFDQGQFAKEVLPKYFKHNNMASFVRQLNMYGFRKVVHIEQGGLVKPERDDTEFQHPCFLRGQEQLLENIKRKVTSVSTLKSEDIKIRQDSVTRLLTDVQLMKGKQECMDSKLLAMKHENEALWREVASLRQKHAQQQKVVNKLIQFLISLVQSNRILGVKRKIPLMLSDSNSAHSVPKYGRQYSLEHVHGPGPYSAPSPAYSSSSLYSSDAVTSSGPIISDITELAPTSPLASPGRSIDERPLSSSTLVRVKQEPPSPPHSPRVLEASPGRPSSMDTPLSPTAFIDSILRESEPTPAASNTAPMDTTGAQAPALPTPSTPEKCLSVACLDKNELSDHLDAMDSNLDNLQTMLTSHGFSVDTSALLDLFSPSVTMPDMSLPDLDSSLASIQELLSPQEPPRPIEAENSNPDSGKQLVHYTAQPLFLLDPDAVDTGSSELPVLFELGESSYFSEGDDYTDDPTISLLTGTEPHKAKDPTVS

[9] = biological target: T7, Microphthalmia-associated transcription factor (Homo sapiens, UniProt O75030); assay: TRPM1 promoter luciferase signal decrease, dose response, MITF inhibitor project, cell-based, SK-MEL-5, cherry-picked, set 3 (AID 493073); format: functional
T7 sequence (O75030 whole entry): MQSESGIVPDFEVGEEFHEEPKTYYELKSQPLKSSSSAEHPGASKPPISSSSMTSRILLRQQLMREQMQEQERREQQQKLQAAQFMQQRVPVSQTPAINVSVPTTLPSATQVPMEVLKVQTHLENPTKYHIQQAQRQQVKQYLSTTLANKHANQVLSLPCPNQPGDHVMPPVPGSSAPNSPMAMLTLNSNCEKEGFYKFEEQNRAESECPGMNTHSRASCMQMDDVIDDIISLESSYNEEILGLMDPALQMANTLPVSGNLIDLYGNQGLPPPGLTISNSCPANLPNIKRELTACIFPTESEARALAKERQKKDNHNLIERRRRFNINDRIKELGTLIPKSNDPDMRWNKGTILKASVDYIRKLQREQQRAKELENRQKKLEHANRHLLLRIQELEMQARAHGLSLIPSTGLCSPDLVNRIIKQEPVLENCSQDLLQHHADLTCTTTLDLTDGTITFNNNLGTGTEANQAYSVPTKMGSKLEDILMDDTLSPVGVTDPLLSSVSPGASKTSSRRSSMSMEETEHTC

[10] = CEM21 lymphoblast cell cytotoxicity, dose response, cytotoxicity control for viral fusion inhibitor project, CellTiter-Glo luminescence, cherry-picked (AID 652042); format: functional, cell-based;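 further: potency for signal decrease meaning cytotoxicity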
[11] = ZM109 Env clade C HIV-1 fusion inhibitors, dose response, HeLa effector, CEM target cells, luciferase, cherry-pick (AID 652058); format: functional, cell-based
[12] = biological target: Sphingosine 1-phosphate receptor 2 (Homo sapiens, UniProt O95136); assay: Dose Response Cell Based Assay for Antagonists of the S1P2 Receptor. [Related pubchem assays: 856, 736 ]; format: functional
Cytochrome P450 3A4 = Cytochrome P450 3A4 (Homo sapiens, UniProt P08684);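 further: CYP3A4 tested as one member of a cytochrome P450 panel screen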
Interleukin-8 [13] = biological target: T8, Interleukin-8 (Homo sapiens, UniProt P10145); assay: Dose Response confirmation of uHTS small molecule hits for cystic fibrosis induced NFkb Inhibitors in a PAF-induced IL8 counterscreen.; format: functional; settings: read-out: IC50_Mean
T8 sequence (P10145 whole entry): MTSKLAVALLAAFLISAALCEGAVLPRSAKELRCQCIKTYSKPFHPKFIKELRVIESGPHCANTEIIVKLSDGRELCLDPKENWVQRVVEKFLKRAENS

[14] = inhibitors of clade B AD8 Env fusion, dose response, cell-based, cherry-pick (AID 652062); format: functional;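 further: luciferase signal from cell-cell fusion driven by HIV-1 clade B AD8 Env; potency is for inhibitors of fusion seen as a drop in luminescence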
Interleukin-8 [15] = biological target: T8, Interleukin-8; assay: Dose Response confirmation of uHTS small molecule hits for cystic fibrosis induced NFkb Inhibitors in a TNFa-induced IL8 counterscreen.; format: functional; settings: read-out: IC50_Mean
[16] = inhibitors of HIV Env-driven cell fusion, dose response, cherry-pick (AID 652057); format: functional, cell-based
[17] = THP-1 cell cytotoxicity, cytotoxicity control, set 4 (AID 504911); format: functional; settings: Mycobacterium tuberculosis
[18] = AlphaScreen signal interference compounds, dose response, artefact control for ARNT-TACC3 interaction inhibitor project, biochemical, luminescence, cherry-pick (AID 651705); format: functional;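 further: AlphaScreen bead proximity signal that flags compounds interfering with the detection technology; potency reflects signal decrease which marks the compound as an assay artifact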
[19] = biological target: T4, Mitochondrial peptide methionine sulfoxide reductase; format: functional

T4 sequence (P54149 whole entry): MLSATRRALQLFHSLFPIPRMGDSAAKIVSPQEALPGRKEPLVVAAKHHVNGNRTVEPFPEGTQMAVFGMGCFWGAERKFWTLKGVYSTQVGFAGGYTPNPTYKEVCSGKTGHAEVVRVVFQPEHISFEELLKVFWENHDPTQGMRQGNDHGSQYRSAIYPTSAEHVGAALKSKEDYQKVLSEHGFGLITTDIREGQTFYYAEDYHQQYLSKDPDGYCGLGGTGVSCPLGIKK
Cytochrome P450 3A4, sequence (P08684 whole entry): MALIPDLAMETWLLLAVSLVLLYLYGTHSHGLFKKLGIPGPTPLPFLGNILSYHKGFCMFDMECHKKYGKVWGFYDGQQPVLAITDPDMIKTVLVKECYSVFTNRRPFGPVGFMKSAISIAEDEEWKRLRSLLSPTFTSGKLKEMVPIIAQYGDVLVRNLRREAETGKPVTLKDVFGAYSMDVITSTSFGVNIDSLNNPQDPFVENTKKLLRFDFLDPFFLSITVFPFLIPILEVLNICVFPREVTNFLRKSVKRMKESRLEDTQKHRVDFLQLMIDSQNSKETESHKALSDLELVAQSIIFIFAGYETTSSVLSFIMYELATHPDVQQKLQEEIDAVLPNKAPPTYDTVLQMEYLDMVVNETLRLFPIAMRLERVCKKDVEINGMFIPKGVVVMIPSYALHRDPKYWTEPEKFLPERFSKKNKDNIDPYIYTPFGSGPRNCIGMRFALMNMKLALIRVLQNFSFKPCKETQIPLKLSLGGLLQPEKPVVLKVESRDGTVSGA
Sphingosine 1-phosphate receptor 2, sequence (O95136 whole entry): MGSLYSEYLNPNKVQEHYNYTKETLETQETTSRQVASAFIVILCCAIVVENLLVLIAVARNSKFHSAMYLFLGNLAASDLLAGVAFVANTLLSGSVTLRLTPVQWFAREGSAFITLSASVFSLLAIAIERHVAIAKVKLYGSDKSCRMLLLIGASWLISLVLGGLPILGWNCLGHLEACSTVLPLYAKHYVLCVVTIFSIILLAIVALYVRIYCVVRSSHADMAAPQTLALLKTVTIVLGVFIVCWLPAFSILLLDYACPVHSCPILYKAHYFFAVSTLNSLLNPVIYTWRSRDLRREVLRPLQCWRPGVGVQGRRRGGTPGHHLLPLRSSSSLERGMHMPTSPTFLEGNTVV

O=C(OCC(=O)N1CCN(c2ccccc2)CC1)c1ccc([N+](=O)[O-])s1
IC50 [1]: 5.37 µM (active) | IC50 [2]: 6.71 µM (active) | IC50 [3]: 2.31 µM (active) | IC50 [4]: 13.8 µM (active) | EC50 [5]: 24.8 µM (inactive) | IC50 (Caspase-3): 10.2 µM (active)

COc1cccc(-c2nnc3n2N=C(C(C)(C)C)CS3)c1
AC50 [6]: 8.72 µM (active) | AC50 [7]: 2.95 µM (active) | EC50 [8]: 2.96 µM (active) | AC50 [9]: 4.82 µM (active) | AC50 [10]: 8.58 µM (active) | AC50 [11]: 0.976 µM (active) | IC50 [12]: 3.31 µM (active) | AC50 (Cytochrome P450 3A4): 25.1 µM (inconclusive) | IC50 (Interleukin-8 [13]): 4.14 µM (active) | AC50 [14]: 2.3 µM (active) | IC50 (Interleukin-8 [15]): 42.4 µM (inactive) | AC50 [16]: 1.25 µM (active)

CCSc1nc(C)c(C)c(O)n1
CC50 [17]: > 100 µM (active)

O=C(CSc1cccc2cccnc12)Nc1ccccc1F
AC50 [18]: 90.5 µM (active)

O=[N+]([O-])c1cccc(/C=N/n2c(S)nnc2C2CCCCC2)c1
IC50 [19]: 155 µM (inactive)
